Measured values from patent US20250186391A1, “ORAL COMPLEMENT FACTOR D INHIBITORS” (BioCryst Pharmaceuticals, Inc., priority 2019, published 2025).

Molecular target: Factor D (Homo sapiens (Human), UniProt P00746)
Experiment: Factor D esterolytic assay
Assay type: biochemical
Settings: Z-Lys-SBzl substrate, 100 mM HEPES, 500 mM NaCl, pH 7.5, 10% DMSO; tested a minimum of three times; read-out: Measured Ki (IC50) Value for Compounds: IC50
In short: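 Chromogenic thioesterase read-out: Z-Lys-SBzl (1.29 mM) hydrolysis by human Factor D, thiol detected with DTNB at 405 nm (690 nm background subtracted) for 600 s. Run in 100 mM HEPES, 500 mM NaCl, pH 7.5, 10% DMSO, substrate added immediately or after room-temperature preincubation. IC50 from percent inhibition versus enzyme alone, n≥3.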

Chain of Factor D (P00746 26-253): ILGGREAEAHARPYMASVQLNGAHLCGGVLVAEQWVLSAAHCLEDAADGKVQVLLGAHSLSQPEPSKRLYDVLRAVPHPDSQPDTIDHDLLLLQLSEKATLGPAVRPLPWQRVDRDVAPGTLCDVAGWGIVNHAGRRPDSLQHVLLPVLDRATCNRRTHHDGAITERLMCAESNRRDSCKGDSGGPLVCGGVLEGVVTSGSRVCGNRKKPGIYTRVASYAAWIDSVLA

SMILES | IC50 [nM]
COc1ccc(CC(=O)O)c(OCc2nn(C)c3ccc(-c4cccc(CN)c4F)cc23)c1 [Compound 309b, 2-(2-((5-(3-(aminomethyl)-2-fluorophenyl)-1-methyl-1H-indazol-3-yl)methoxy)-4-methoxyphenyl)acetic acid] | < 1000
COc1c(-c2ccc3c(c2)c(COc2ccccc2CC(=O)O)nn3C2CCC2)ccnc1CN [Compound 328d, 2-(2-((5-(2-(aminomethyl)-3-methoxypyridin-4-yl)-1-cyclobutyl-1H-indazol-3-yl)methoxy)phenyl)acetic acid] | > 10000
NCc1cccc(-c2ccc3oc(C(N)=O)c(COc4ccccc4CC(=O)O)c3c2)c1 [Compound 103c, 2-(2-((5-(3-(aminomethyl)phenyl)-2-carbamoylbenzofuran-3-yl)methoxy)phenyl)acetic acid] | < 1000
CCc1oc2ccc(-c3cccc(CN)c3)cc2c1COc1cc(OC)ccc1CC(=O)O [Compound 225e, 2-(2-((5-(3-(aminomethyl)phenyl)-2-ethylbenzofuran-3-yl)methoxy)-4-methoxyphenyl)acetic acid] | < 1000
COc1ccc(CC(=O)O)c(OCc2c3cc(-c4cccc(CN)c4)ccc3nn2C)c1 [Compound 210c, 2-(2-((5-(3-(aminomethyl)phenyl)-2-methyl-2H-indazol-3-yl)methoxy)-4-methoxyphenyl)acetic acid] | < 1000
NCc1cccc(-c2cc(COc3ccccc3CCC(=O)O)cc3cc(COc4ccccc4CC(=O)O)oc23)c1 [Compound 15e, 3-(2-((7-(3-(aminomethyl)phenyl)-2-((2-(carboxymethyl)phenoxy)methyl)benzofuran-5-yl)methoxy)phenyl)propanoic acid] | < 1000
COc1ccc(CC(=O)O)c(OCc2c(C)oc3ccc(-c4ccnc(CN)c4)cc23)c1 [Compound 203d, 2-(2-((5-(2-(aminomethyl)pyridin-4-yl)-2-methylbenzofuran-3-yl)methoxy)-4-methoxyphenyl)acetic acid] | < 1000
CC(C)n1nc(COc2ccccc2CC(=O)O)c2cc(-c3cc(CN)cc(C4CCOCC4)c3)ccc21 [Compound 332e, 2-(2-((5-(3-(aminomethyl)-5-(tetrahydro-2H-pyran-4-yl)phenyl)-1-isopropyl-1H-indazol-3-yl)methoxy)phenyl)acetic acid] | > 10000
NCc1cccc(-c2ccc3occ(C(=O)Nc4ccccc4CC(=O)O)c3c2)c1 [Compound 10c, 2-(2-(5-(3-(aminomethyl)phenyl)benzofuran-3-carboxamido)phenyl)acetic acid] | < 1000
COc1c(CN)cccc1-c1cc2c(COc3ccccc3CC(=O)O)cccc2o1 [Compound 300d, 2-(2-((2-(3-(aminomethyl)-2-methoxyphenyl)benzofuran-4-yl)methoxy)phenyl)acetic acid] | 1000 to 10000
NCc1cccc(-c2cc(F)cc3cc(COc4ccccc4CC(=O)O)oc23)c1 [Compound 31f, 2-(2-((7-(3-(aminomethyl)phenyl)-5-fluorobenzofuran-2-yl)methoxy)phenyl)acetic acid] | < 1000
CC(C(=O)O)c1ccccc1OCc1coc2c(NCC3CCCC3)cc(-c3cccc(CN)c3)cc12 (centres unmarked) [Compound 186c, 2-(2-((5-(3-(aminomethyl)phenyl)-7-((cyclopentylmethyl)amino)benzofuran-3-yl)methoxy)phenyl)propanoic acid] | < 1000
Cc1ccc(CC(=O)O)c(OCc2c3cc(-c4cccc(CN)c4)ccc3nn2C(C)C)c1 [Compound 256c, 2-(2-((5-(3-(aminomethyl)phenyl)-2-isopropyl-2H-indazol-3-yl)methoxy)-4-methylphenyl)acetic acid] | < 1000
Cc1ccc(S(=O)(=O)n2cc(COc3ccccc3CC(=O)O)c3cc(-c4cccc(CN)c4)ccc32)cc1 [Compound 66f, 2-(2-((5-(3-(aminomethyl)phenyl)-1-tosyl-1H-indol-3-yl)methoxy)phenyl)acetic acid] | < 1000
CC(C)n1nc2ccc(-c3cccc(CN)c3)cc2c1COc1ccccc1CC(=O)O [Compound 183e, 2-(2-((5-(3-(aminomethyl)phenyl)-2-isopropyl-2H-indazol-3-yl)methoxy)phenyl)acetic acid] | < 1000
NCc1cccc(-c2ccc3c(c2)c(COc2ccccc2CC(=O)O)nn3CC2CC2)c1 [Compound 258f, 2-(2-((5-(3-(aminomethyl)phenyl)-1-(cyclopropylmethyl)-1H-indazol-3-yl)methoxy)phenyl)acetic acid] | < 1000
NCc1cccc(-c2cc3c(COc4ccccc4CC(=O)O)csc3c3occc23)c1 [Compound 232h, 2-(2-((4-(3-(aminomethyl)phenyl)thieno[3,2-g]benzofuran-6-yl)methoxy)phenyl)acetic acid] | < 1000
NCc1cccc(-c2cc3c(COc4ccccc4CC(=O)O)coc3c3ccoc23)c1F [Compound 287b, 2-(2-((5-(3-(aminomethyl)-2-fluorophenyl)benzo[1,2-b:3,4-b′]difuran-3-yl)methoxy)phenyl)acetic acid] | < 1000
CC(C)n1nc(COc2ccccc2CC(=O)O)c2cc(-c3cccc(CN)c3N)ccc21 [Compound 307c, 2-(2-((5-(2-amino-3-(aminomethyl)phenyl)-1-isopropyl-1H-indazol-3-yl)methoxy)phenyl)acetic acid] | < 1000
NCc1cccc(-c2ccc3occ(COc4c(CC(=O)O)cccc4C(=O)O)c3c2)c1 [Compound 301d, 2-((5-(3-(aminomethyl)phenyl)benzofuran-3-yl)methoxy)-3-(carboxymethyl)benzoic acid] | < 1000
COc1ccc(CC(=O)O)c(OCc2coc3c2cc(-c2cccc(CN)c2)c2occc23)c1 [Compound 231c, 2-(2-((5-(3-(aminomethyl)phenyl)benzo[1,2-b:3,4-b′]difuran-3-yl)methoxy)-4-methoxyphenyl)acetic acid] | < 1000
CCOC(=O)Cc1ccc(OC)cc1OCc1nn(C)c2ccc(-c3ccnc(CN)c3)cc12 [Compound 315b, ethyl 2-(2-((5-(2-(aminomethyl)pyridin-4-yl)-1-methyl-1H-indazol-3-yl)methoxy)-4-methoxyphenyl)acetate] | < 1000

The next lines start with the values.

IC50 [nM] | SMILES
< 1000 | CN(C)Cc1cc(-c2cccc(CN)c2)cc2c(COc3ccccc3CC(=O)O)coc12 [Compound 82e, 2-(2-((5-(3-(aminomethyl)phenyl)-7-((dimethylamino)methyl)benzofuran-3-yl)methoxy)phenyl)acetic acid]
> 10000 | NCc1cccc(-c2cccc3c(COc4ccccc4CC(=O)O)coc23)c1 [Compound 36e, 2-(2-((7-(3-(aminomethyl)phenyl)benzofuran-3-yl)methoxy)phenyl)acetic acid]
< 1000 | NCc1cccc(-c2cc(C(F)F)c3occ(COc4ccccc4CC(=O)O)c3c2)c1 [Compound 262e, 2-(2-((5-(3-(aminomethyl)phenyl)-7-(difluoromethyl)benzofuran-3-yl)methoxy)phenyl)acetic acid]
< 1000 | NCc1cccc(-c2cc(Cl)c3occ(COc4ccccc4CC(=O)O)c3c2)c1 [Compound 127f, 2-(2-((5-(3-(aminomethyl)phenyl)-7-chlorobenzofuran-3-yl)methoxy)phenyl)acetic acid]
< 1000 | NCc1cccc(-c2cc(Cn3ccnc3)c3occ(COc4ccccc4CC(=O)O)c3c2)c1 [Compound 155e, 2-(2-((7-((1H-imidazol-1-yl)methyl)-5-(3-(aminomethyl)phenyl)benzofuran-3-yl)methoxy)phenyl)acetic acid]
< 1000 | NCc1cccc(-c2cc(C#CC3CC3)c3occ(COc4ccccc4CC(=O)O)c3c2)c1 [Compound 294d, 2-(2-((5-(3-(aminomethyl)phenyl)-7-(cyclopropylethynyl)benzofuran-3-yl)methoxy)phenyl)acetic acid]
< 1000 | CC(C)c1ccccc1-c1cc(-c2cccc(CN)c2)cc2c(COc3ccccc3CC(=O)O)coc12 [Compound 219c, 2-(2-((5-(3-(aminomethyl)phenyl)-7-(2-isopropylphenyl)benzofuran-3-yl)methoxy)phenyl)acetic acid]
< 1000 | Cn1ccc(COc2cc(-c3cccc(CN)c3)cc3c(COc4ccccc4CC(=O)O)coc23)n1 [Compound 198f, 2-(2-((5-(3-(aminomethyl)phenyl)-7-((1-methyl-1H-pyrazol-3-yl)methoxy)benzofuran-3-yl)methoxy)phenyl)acetic acid]
< 1000 | NCc1cccc(-c2ccc3oc(CO)c(COc4ccccc4CC(=O)O)c3c2)c1 [Compound 112c, 2-(2-((5-(3-(aminomethyl)phenyl)-2-(hydroxymethyl)benzofuran-3-yl)methoxy)phenyl)acetic acid]
< 1000 | CN1CCN(Cc2cc(-c3cccc(CN)c3)cc3c(COc4ccccc4CC(=O)O)coc23)CC1 [Compound 157e, 2-(2-((5-(3-(aminomethyl)phenyl)-7-((4-methylpiperazin-1-yl)methyl)benzofuran-3-yl)methoxy)phenyl)acetic acid]
< 1000 | NCc1cccc(-c2cc(/C=C/C3CC3)c3occ(COc4ccccc4CC(=O)O)c3c2)c1 [Compound 132d, (E)-2-(2-((5-(3-(aminomethyl)phenyl)-7-(2-cyclopropylvinyl)benzofuran-3-yl)methoxy)phenyl)acetic acid]
< 1000 | COc1ccc(OCc2coc3ccc(-c4cccc(CN)c4)cc23)c(CC(=O)O)c1 [Compound 106c, 2-(2-((5-(3-(aminomethyl)phenyl)benzofuran-3-yl)methoxy)-5-methoxyphenyl)acetic acid]
< 1000 | NCc1cccc(-c2cc(NC[C@@H]3CCCO3)c3occ(COc4ccccc4CC(=O)O)c3c2)c1 [Compound 275d, (S)-2-(2-((5-(3-(aminomethyl)phenyl)-7-(((tetrahydrofuran-2-yl)methyl)amino)benzofuran-3-yl)methoxy)phenyl)acetic acid]
